Measured values as given in BindingDB's records for doi:10.1016/s0960-894x(97)10184-6 (Cinc, 1999).

Tests used:
[1] = Tested for inhibition of substrate hydrolysis in the presence of porcine kidney esterase at a concentration of 1 uM
[2] = Tested for inhibition of substrate hydrolysis in the presence of porcine kidney esterase at a concentration of 9 uM
[3] = Tested for inhibition of substrate hydrolysis in the presence of porcine kidney esterase at a concentration of 45 nM

Row | Compound | Ki [1] [nM] | Ki [2] [nM] | Ki [3] [nM]
1 | COC(=O)CCC(=O)N[C@@H](C)C(=O)N[C@@H](C)C(=O)N1CCC[C@H]1C(=O)N/C(=C(/OC(C)=O)C(=O)OC)C(C)C [(E)-2-Acetoxy-3-[((S)-1-{(S)-2-[(S)-2-(3-methoxycarbonyl-propionylamino)-propionylamino]-propionyl}-pyrrolidine-2-carbonyl)-amino]-4-methyl-pent-2-enoic acid methyl ester] | 130 | 130 | –
2 | COC(=O)/C(OC(C)=O)=C(\NC(=O)[C@@H]1CCCN1C(=O)[C@H](C)NC(=O)[C@H](C)NC(=O)c1ccc(C(=O)NS(=O)(=O)c2ccc(Cl)cc2)cc1)C(C)C [(E)-2-Acetoxy-3-{[(S)-1-((S)-2-{(S)-2-[4-(4-chloro-benzenesulfonylaminocarbonyl)-benzoylamino]-propionylamino}-propionyl)-pyrrolidine-2-carbonyl]-amino}-4-methyl-pent-2-enoic acid methyl ester] | – | – | 13
